Among the data in patent publication US20260008760A1, “DIPEPTIDYL PEPTIDASE 1 INHIBITORS AND USES THEREOF” (Insmed Incorporated, priority 2024, published 2026) are IC50 values, retold here.

SMILES strings stand for the structures. Like-named read-outs stand apart in the source and are kept apart here.

The target in one test is human DPP1 enzyme (Homo sapiens, UniProt P53634). In words: Human DPP1 Enzyme IC50 Assay. The class given is biochemical. Details: was first proteolytically processed into its mature form using recombinant human cathepsin L; purchased R&D Systems. The method in brief: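 Recombinant human DPP1, pre-activated with cathepsin L (pH 4.5), was preincubated with compound 10 min at 37 °C in MES pH 6.0, 50 mM NaCl, 5 mM DTT, 1% DMSO. Cleavage of 400 μM (final) H-Gly-Arg-AMC followed by fluorescence (350/450 nm) over 90 min at 37 °C; IC50 from four-parameter logistic fit versus no-compound control.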

Another test addresses DPP1 in HL-60 cells (Homo sapiens, UniProt P53634). In words: DPP1 Cell IC50 assay. Type of test: cell-based. The following applies: 60 min pre-incubation, H-Gly-Phe-AFC substrate, average of n runs. Details: host or cells: HL-60 cells. The method in brief:
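HL-60 cells in PBS (5×10^5 live cells per mL) pre-incubated with compound (0.5% DMSO) 60 min at 37° C, 5% CO2, then H-Gly-Phe-AFC substrate (500 μM stock) added for 30 min. Fluorescence at 400/505 nm; % inhibition vs vehicle wells, IC50 from four-parameter logistic fit.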

The mark [1] stands for this setting: activated recombinant human DPP1, 400 μM H-Gly-Arg-AMC, 10 minutes pre-incubation at 37° C., pH 6.0, average of n runs, read-out: Avg. IC50 (Human DPP1 enzyme IC50 value ranges).
Setting [2] is: read-out: Avg. IC50 (DPP1 Cell IC50 value ranges).
Setting [3] is: Avg. IC50 (DPP1 Cell IC50 value ranges).

Chain of human DPP1 enzyme (P53634 25-134 limits assumed): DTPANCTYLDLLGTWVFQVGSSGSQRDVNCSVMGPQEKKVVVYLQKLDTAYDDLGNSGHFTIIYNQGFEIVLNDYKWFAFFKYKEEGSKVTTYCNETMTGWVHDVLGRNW
Chain of human DPP1 enzyme (P53634 231-394 limits assumed): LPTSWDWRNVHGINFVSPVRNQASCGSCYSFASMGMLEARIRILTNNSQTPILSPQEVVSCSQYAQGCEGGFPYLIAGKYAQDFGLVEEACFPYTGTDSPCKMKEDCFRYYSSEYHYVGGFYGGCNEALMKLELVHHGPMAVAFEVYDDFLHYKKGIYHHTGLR
Chain of human DPP1 enzyme (P53634 395-463 limits assumed): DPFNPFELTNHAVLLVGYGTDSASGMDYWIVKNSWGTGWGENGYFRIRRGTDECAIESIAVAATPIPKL
Chain of DPP1 in HL-60 cells (P53634 25-463): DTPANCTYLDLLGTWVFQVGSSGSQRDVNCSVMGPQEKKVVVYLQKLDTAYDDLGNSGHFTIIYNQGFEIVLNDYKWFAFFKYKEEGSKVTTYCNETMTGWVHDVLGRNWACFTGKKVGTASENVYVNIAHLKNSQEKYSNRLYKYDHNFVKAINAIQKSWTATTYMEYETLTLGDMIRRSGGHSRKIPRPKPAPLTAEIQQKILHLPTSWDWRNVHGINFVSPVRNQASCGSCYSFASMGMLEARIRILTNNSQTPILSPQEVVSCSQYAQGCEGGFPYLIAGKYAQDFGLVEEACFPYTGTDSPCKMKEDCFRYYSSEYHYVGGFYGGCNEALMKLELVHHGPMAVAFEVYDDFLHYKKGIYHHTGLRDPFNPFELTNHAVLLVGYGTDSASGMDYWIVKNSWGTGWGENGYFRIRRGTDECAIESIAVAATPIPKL

For `CO[C@H]1CCO[C@H](C(=O)N[C@H](C#N)Cc2ccc(-c3ccc4c(c3)CCC(=O)N4C)cc2)CNC1` [Compound A147], the IC50 (as a rule, the concentration needed to halve the response being measured) is 5 to 15 nM on human DPP1 enzyme (setting [1]) and 1 to 2.5 nM at DPP1 in HL-60 cells (setting [2]).
Taken in the same sequence, the figures for `C[C@@H]1NC[C@@H](C(=O)N[C@H](C#N)Cc2ccc(-c3ccc4c(c3)CCC(=O)N4C)cc2)OC[C@@H]1O` [Compound A148] were above 15 nM and above 2.5 nM.
The corresponding values for `CN1C(=O)CCc2cc(-c3ccc(C[C@@H](C#N)NC(=O)[C@@H]4CNCC[C@@H](F)CO4)cc3)ccc21` [Compound A149] are above 15 nM and 1 to 2.5 nM.
The corresponding values for `CO[C@@H]1CCNC[C@@H](C(=O)N[C@H](C#N)Cc2ccc(-c3ccc4c(c3)CCC(=O)N4C)cc2F)OC1` [Compound A151] are below 5 nM and 1 to 2.5 nM.
For the compound `COC1CNC[C@@H](C(=O)N[C@H](C#N)Cc2ccc(-c3ccc4c(c3)CCC(=O)N4C)cc2F)OC1` (stereo partly drawn) [Compound A152], the IC50 on human DPP1 enzyme (setting [1]) was below 5 nM; on DPP1 in HL-60 cells (setting [2]) it was below 1 nM.
Taken in the same sequence, the figures for `CO[C@H]1CCO[C@H](C(=O)N[C@H](C#N)Cc2ccc(-c3ccc4c(c3)CCC(=O)N4C)cc2F)CNC1` [Compound A153] were below 5 nM and below 1 nM.
The corresponding values for `C[C@@H]1NC[C@@H](C(=O)N[C@H](C#N)Cc2ccc(-c3ccc4c(c3)CCC(=O)N4C)cc2F)OC[C@@H]1O` [Compound A154] are 5 to 15 nM and 1 to 2.5 nM.
Consider `CN1C(=O)CCc2cc(-c3ccc(C[C@@H](C#N)NC(=O)[C@@H]4CNCC[C@@H](F)CO4)c(F)c3)ccc21` [Compound A155], for which the IC50 was 5 to 15 nM at human DPP1 enzyme (setting [1]) and 1 to 2.5 nM at DPP1 in HL-60 cells (setting [2]).
The corresponding values for `COC1CNC[C@@H](C(=O)N[C@H](C#N)Cc2ccc(-c3ccc4c(F)nn(C)c4c3)cc2)OC1` (stereo partly drawn) [Compound A158] are below 5 nM and below 1 nM.
The corresponding values for `C[C@@H]1NC[C@@H](C(=O)N[C@H](C#N)Cc2ccc(-c3ccc4c(F)nn(C)c4c3)cc2)OC[C@@H]1O` [Compound A160] are 5 to 15 nM and 1 to 2.5 nM.
Taken in the same sequence, the figures for `Cn1nc(F)c2ccc(-c3ccc(C[C@@H](C#N)NC(=O)[C@@H]4CNCC[C@@H](F)CO4)cc3)cc21` [Compound A161] were above 15 nM and above 2.5 nM.
For the compound `COC1CNC[C@@H](C(=O)N[C@H](C#N)Cc2ccc(-c3ccc4c(F)nn(C)c4c3)cc2F)OC1` (stereo partly drawn) [Compound A164], the IC50 was below 5 nM on human DPP1 enzyme (setting [1]) and below 1 nM at DPP1 in HL-60 cells (setting [2]).
Taken in the same sequence, the figures for `CO[C@H]1CCO[C@H](C(=O)N[C@H](C#N)Cc2ccc(-c3ccc4c(F)nn(C)c4c3)cc2F)CNC1` [Compound A165] were 5 to 15 nM and 1 to 2.5 nM.
The corresponding values for `C[C@@H]1NC[C@@H](C(=O)N[C@H](C#N)Cc2ccc(-c3ccc4c(F)nn(C)c4c3)cc2F)OC[C@@H]1O` [Compound A166] are 5 to 15 nM and 1 to 2.5 nM.
The corresponding values for `COC1CNC[C@@H](C(=O)N[C@H](C#N)Cc2cnc(-c3ccc4c(F)nn(C)c4c3)s2)OC1` (stereo partly drawn) [Compound A169] are below 5 nM and below 1 nM.
Consider `C[C@@H]1NC[C@@H](C(=O)N[C@H](C#N)Cc2cnc(-c3ccc4c(F)nn(C)c4c3)s2)OC[C@@H]1O` [Compound A171], for which the IC50 on human DPP1 enzyme (setting [1]) was above 15 nM; on DPP1 in HL-60 cells (setting [2]), above 2.5 nM.
In the case of `N#C[C@H](Cc1ccc2c(c1)OCc1ccc(C3CCNC3)cc1-2)NC(=O)[C@@H]1CNCCCO1` (stereo partly drawn) [Compound B1, (2S)—N-[(1S)-1-cyano-2-[9-(pyrrolidin-3-yl)-6H-benzo[c]chromen-3-yl]ethyl]-1,4-oxazepane-2-carboxamide], the IC50 at human DPP1 enzyme is above 15 nM; against DPP1 in HL-60 cells (setting [3]) it was above 2.5 nM.
The corresponding values for `N#Cc1ccc2c(c1)COc1c-2ccc(CC(C#N)NC(=O)[C@@H]2CNCCCO2)c1F` (stereo partly drawn) [Compound B4, (2S)—N-(1-cyano-2-{8-cyano-4-fluoro-6H-benzo[c]chromen-3-yl}ethyl)-1,4-oxazepane-2-carboxamide] are above 15 nM and above 2.5 nM.
